Source: PMC6961122 (Bioorganic & Medicinal Chemistry, 2020)
Where two headings read alike, the source gives them in different places.

How the values were obtained:
T98 cells [1] = assay: Cell viability assay (PrestoBlue, 5 d) in T98 glioma cells; assay type: cell-based; conditions: library screen, 5 d treatment, mean of three independent experiments in triplicates, read-out: EC50 T98 ± SEM
Procedure: (§1) The antiproliferative activity of a total of 100 compounds was tested against U87 and T98 glioma cell lines, using TMZ[3] and the Topoisomerase I inhibitor SN-38[18] as positive controls. Cells were treated with the library members for 5 d at three different concentrations (3, 30 and 300 µM) and cell viability determined using the PrestoBlue reagent. Half-maximal effective concentration (EC50) values were calculated from the corresponding dose-response curves and plotted in Fig. 2a as a heatmap to facilitate data analysis, with black meaning no activity and dark to light green to yellow transitions indicating decreasing EC50 values (=increasing potencies). Table 1 of the Suppl. Data contains the corresponding EC50 values ± SEM.
(§2) INK128 and SN-38 were used as positive controls. […] Structurally, these derivatives differed in the size of the alkyl group of the N1 position and the presence or absence of an oxygen atom in that moiety (see Suppl. Data).
(§3) U87 and T98 cells (ATCC) were cultured in DMEM (Gibco), supplemented with 10% (v/v) FBS (Gibco) and 2 mM L-Glutamine (Gibco) in a standard incubator (95% humidity, 5% CO2), and subcultured twice per week through trypsinization. G317 patient-derived glioma cells were established by the Glioma Cellular Genetics Resource (gcgr.org.uk) funded by Cancer Research UK. Ethics approval for use of patient-derived cells and early access confirmation to reagents from the Glioma Cellular Genetics Resource assured that all ethical issues according to UK legislation are fulfilled. G317 were cultured in DMEM/HAMS-F12 (Sigma) supplemented with 1.5 g L^−1 D-(+)-Glucose (Sigma), MEM non-essential aminoacids (Gibco), 0.015% (w/v) Penicillin-Streptomycin (Gibco), 0.012% (w/v) BSA (Gibco), 0.1 mM β-mercaptoethanol (Gibco), B27 (Gibco) and N2 supplements (Gibco). Cells were detached using accutase solution (Sigma) and subcultured once per week. Before adding to the cells, medium was supplemented with 10 ng ml^−1 mouse EGF (Preprotech), 10 ng ml^−1 human FGF (Preprotech), and 1 µg ml^−1 Laminin (Sigma).
(§4) 1 × 10^3 U87 cells/well, 5 × 10^2 T98 cells/well, 1 × 10^4 G317 cells/well, 1 × 10^4 HBVP cells/well and 1 × 10^4 bEnd3 cells/well were seeded in 96-well plates. After 48 h in culture, cells were treated with the inhibitors for 5 d. For GI50 determination, the viability of a triplicate sample of each experiment before treatment was measured with the PrestoBlue Reagent (Invitrogen), to establish a basepoint 0% of growth. […] ZIP Synergy scores were obtained with Synergy finder.[22] Viability percentage, EC50 and GI50 values were obtained using GraphPad Prism version 8.0.0 for Windows, GraphPad Software, San Diego, California USA, www.graphpad.com.

[2] = tested on: G317 patient-derived glioma cells; assay: Growth inhibition (GI50, PrestoBlue, 5 d) in patient-derived glioma cells G317; assay type: cell-based, human; conditions: 5 d treatment, growth related to t=0 and DMSO, extrapolated from sigmoidal dose-response curve; for GI50: read-out: GI50 (50% of growth inhibition) in G317
Procedure: Cells were treated with each inhibitor at concentrations ranging from 1 to 10,000 nM and PrestoBlue assay used at day 5 to detect viability. […] Data are means ± SEM of 3 independent experiments in triplicates.
as §3, §4
Table S2 . GI 50 values (nM) calculated for eCF309 , eCF311 , eCF312 , eCF324 , eCF325 and controls
Cells were treated with 10, 3, 1 µM,
300, 100, 30, 10, 3, 1, 0 nM of each inhibitor during 5 d. Cell growth (PrestoBlue) was related to t=0 (before
drug treatment), and GI 50 values were extrapolated from their corresponding sigmoidal dose-response curve

U87 cells [3] = assay: Cell viability assay (PrestoBlue, 5 d) in U87 glioma cells; assay type: cell-based; conditions: library screen, 5 d treatment, mean of three independent experiments in triplicates, read-out: EC50 U87 ± SEM
Procedure: as §1, §2, §3, §4

mTOR = tested on: mTOR; set-up: method as in earlier work; conditions: recombinant kinase; previously obtained kinase profiling data; cited from earlier work
PI3Kα = tested on: PI3Kα; set-up: method as in earlier work; conditions: recombinant kinase; previously obtained kinase profiling data; cited from earlier work
T98 cells [4] = assay: Cell viability assay (PrestoBlue, 5 d) in T98 glioma cells; assay type: cell-based; conditions: PrestoBlue day 5; for activity (EC50) of novel compounds in T98, in words: 1 to 30,000 nM, Fig. 7
U87 cells [5] = assay: Cell viability assay (PrestoBlue, 5 d) in U87 glioma cells; assay type: cell-based; conditions: PrestoBlue day 5; for activity (EC50) of novel compounds in U87, in words: 1 to 30,000 nM, Fig. 7
G317 spheroids = assay: 3D spheroids assay, G317 spheroid area; assay type: cell-based, human; conditions: pre-formed spheroids; 0.01–10 µM for 8 days
Procedure: To test the compounds under conditions that better represent the tumour microenvironment, G317 cells were cultured in 3D and pre-formed spheroids treated with eCF309, eCF324 and the positive controls at a range of concentrations (0.01–10 µM) for 8 days.
Fig. 6 (a) Images of G317 spheroids on day 10. Spheroids were treated with 10 μM of each inhibitor during 8 days, images were acquired using ImageXpress. Scale bar = 100 μm. (b) Area of G317 patient derived spheroids at day 10. Spheroid area was calculated with a custom pipeline on CellProfiler. Data are mean ± SEM of 6 independent spheroids from two different cultures, ***P < 0.001, **P < 0.01 compared to DMSO controls (two-way ANOVA, Tukey post hoc test).
4 × 10^3 G317 cells were seeded in an ultra-low attachment round bottom 96-well plate, centrifuged at 1000g, 4 °C for 10 min and allowed to form spheroids for 2 days. Spheroids were then incubated with the inhibitors at 4 concentrations ranging from 10 nM to 10 µM. Spheroids were imaged at day 10 using ImageXpress (Molecular Devices LLC) and processed with ImageJ.[25] Spheroid area was calculated with a custom pipeline on CellProfiler.[26]

[6] = Homo sapiens, Glioma cell, 120 h
[7] = repeat for most potent hits, 7-point half-log dose-response 1 to 1,000 nM

| EC50 (T98 cells [1]; Homo sapiens, T98, 120 h) | GI50 [2, 6] | EC50 (U87 cells [3]; Homo sapiens, U-87 MG, 120 h) | EC50 (T98 cells [1]) | EC50 (U87 cells [3]) | Compound | also measured |
| --- | --- | --- | --- | --- | --- | --- |
| 128 ± 22 nM | 65 nM | 129 ± 19 nM | – | – | CCOC(Cn1nc(-c2ccc3oc(N)nc3c2)c2c(N)ncnc21)OCC [eCF309] | GI50 [2]: 64.9 nM; IC50 (mTOR): 15 nM; IC50 (PI3Kα): 981 nM |
| – | 12.9 nM | – | – | – | CCc1c2c(nc3ccc(O)cc13)-c1cc3c(c(=O)n1C2)COC(=O)[C@]3(O)CC [SN-38, reference compound] | – |
| 88 ± 14 nM | – | 131 ± 10 nM | – | – | Nc1nc2cc(-c3nn(C[C@H]4CCCO4)c4ncnc(N)c34)ccc2o1 [eCF333] | GI50 (50% of growth inhibition) in G317 [2]: identical dose response curves to eCF325; EC50 in T98 cells (T98 cells [4]; [7]): identical dose response curves to that of eCF325; EC50 in U87 cells (U87 cells [5]; [7]): identical dose response curves to that of eCF325 |
| 323 ± 87 nM | 147 nM | 392 ± 58 nM | – | – | Nc1nc2cc(-c3nn(CC4OCCO4)c4ncnc(N)c34)ccc2o1 [eCF311] | – |
| 11 ± 3 nM | 7.2 nM | 16 ± 3 nM | – | – | Nc1nc2cc(-c3nn(CC4CCCC4)c4ncnc(N)c34)ccc2o1 [eCF324] | EC50 (T98 cells [4]; Homo sapiens, T98, 120 h, repeat for most potent hits, 7-point half-log dose-response 1 to 1,000 nM): 10 nM; EC50 (U87 cells [5]; Homo sapiens, U-87 MG, 120 h, repeat for most potent hits, 7-point half-log dose-response 1 to 1,000 nM): 13 nM; IC50 (mTOR): 1.8 nM; IC50 (PI3Kα): 3.5 nM; reduction of G317 spheroid size (area at day 10) (G317 spheroids): most potent antiproliferative activities |
| 105 ± 23 nM | 46.4 nM | 138 ± 23 nM | – | – | Nc1nc2cc(-c3nn(CC4CCCO4)c4ncnc(N)c34)ccc2o1 (stereo not shown) [eCF325] | – |
| – | – | – | – | – | Nc1ncnc2c1c(-c1cnc3[nH]ccc3c1)nn2CC1CCCC1 [eDB002] | activity (EC50) of novel compounds in T98, in words (T98 cells [4]): high activity; activity (EC50) of novel compounds in U87, in words (U87 cells [5]): high activity |
| – | 9.3 nM | – | – | – | CC(C)n1nc(-c2ccc3oc(N)nc3c2)c2c(N)ncnc21 [INK128, sapanisertib, reference compound] | reduction of G317 spheroid size (area at day 10) (G317 spheroids): most potent antiproliferative activities |
| – | – | – | – | – | CNc1ncc2c(-c3ccc4oc(N)nc4c3)nn(CC3CCCC3)c2n1 [eDB001] | activity (EC50) of novel compounds in T98, in words (T98 cells [4]): high activity; activity (EC50) of novel compounds in U87, in words (U87 cells [5]): high activity |
| 80 ± 21 nM | 36.9 nM | 116 ± 21 nM | – | – | COC(Cn1nc(-c2ccc3oc(N)nc3c2)c2c(N)ncnc21)OC [eCF312] | – |
| 100 ± 18 nM | – | 138 ± 13 nM | – | – | Nc1nc2cc(-c3nn(C[C@@H]4CCCO4)c4ncnc(N)c34)ccc2o1 [eCF334] | GI50 (50% of growth inhibition) in G317 [2]: identical dose response curves to eCF325; EC50 in T98 cells (T98 cells [4]; [7]): identical dose response curves to that of eCF325; EC50 in U87 cells (U87 cells [5]; [7]): identical dose response curves to that of eCF325 |
| – | – | – | – | – | 2-(1H-Indazol-4-yl)-6-(4-methanesulfonyl-piperazin-1-ylmethyl)-4-morpholin-4-yl-thieno[3,2-d]pyrimidine [GDC0941, reference compound] | activity (EC50) against T98, in words (T98 cells [4]; 1 to 1,000 nM, Fig. 3): sub-µM activity; activity (EC50) in U87 cells, in words (U87 cells [5]; 1 to 1,000 nM, Fig. 3): low µM activity |
| 9970 ± 4880 nM | – | 13600 ± 809 nM | – | – | COc1cc(-c2nn(CCN3CCC(N(C)C)CC3)c3ncnc(N)c23)ccc1NC(=O)OC(C)(C)C [eCF506] | – |
| – | – | – | 2420 ± 504 nM | 3330 ± 166 nM | CNc1ncc2c(-c3ccc(N4CCNCC4)nc3)nn(CC3CCCC3)c2n1 [eSM107] | – |
| – | – | – | 16400 ± 9530 nM | > 30000 nM | COc1cc(-c2nn(CCN3CCC(N4CCCC4)CC3)c3ncnc(N)c23)ccc1NC(=O)OC(C)(C)C [eCF598] | – |
| – | – | – | 8600 ± 3390 nM | 6090 ± 1390 nM | CNc1ncc2c(-c3ccc(N4CCNCC4)nc3)nn(Cc3cn(-c4ccccc4)nn3)c2n1 [eSM139] | – |
| – | – | – | 3480 ± 567 nM | 12000 ± 168 nM | COc1cc(-c2nn(CCN3CCC(N4CCCC4)CC3)c3ncnc(N)c23)ccc1NC(=O)OC(C)(C)C [eCF518] | – |
| – | – | – | > 30000 nM | > 30000 nM | COc1cc(-c2nn(CCN3CCC(N(C)C)CC3)c3ncnc(N)c23)ccc1NCc1ccccc1 [eCF575] | – |
| – | – | – | > 30000 nM | 23800 ± 2780 nM | CNc1ncc2c(-c3cccc(C(N)=O)c3)nn(CC3CCCC3)c2n1 [eSM108] | – |
| – | – | – | > 30000 nM | > 30000 nM | CNc1ncc2c(-c3ccc(C(N)=O)cc3)nn(CC3CCCC3)c2n1 [eSM106] | – |
